# In patent US8980933B2, “Combretastatin analogs for use in the treatment of cancer” (Universitat Bayreuth, priority 2010, dated 2015):
# pIC50: −log10 of the molar value. “And” between values parts separate entries of the source, which are not always exact repeats. Identical values can stand only once.
# Key:
# [1] = tested on: KB-V1/Vbl cervical carcinoma cells; experiment: MTT cell growth inhibition, KB-V1/Vbl; format: cell-based, human; settings: KB-V1/Vbl (Pgp+)
# Protocol: The MCF-7/Topo cells were grown in E-MEM medium (Sigma) supplemented with 2.2 g/L NaHCO3, 110 mg/L sodium pyruvate and 5% FCS. The cells were maintained in a moisture-saturated atmosphere (5% CO2) at 37° C. in 75-mL culture flasks (Nunc, Wiesbaden, Germany). They were serially passaged following trypsinisation by 0.05% trypsin/0.02% EDTA (PAA laboratories, Clbe, Germany). Mycoplasma contamination was routinely monitored, and only mycoplasma-free cultures were used.
# HL-60 leukemia cells (5×10^5/mL), and cells (5×10^4/mL) of 518A2 melanoma, HT-29 colon, KB-V1/Vbl cervix and MCF-7/Topo breast carcinoma were seeded out in 96-well tissue culture plates and cultured for 24 h. […] Blank and solvent controls were treated identically. MTT in phosphate buffered saline (5 mg/mL) was added to a final concentration of 0.05% (HL-60, 518A2) or 0.1% (HT-29, KB-V1/Vbl, MCF-7/Topo). After 2 h the formazan precipitate was dissolved in 10% sodium dodecylsulfate in DMSO containing 0.6% acetic acid in the case of the HL-60 cells. For the adherent 518A2, KB-V1/Vbl, MCF-7/Topo and HT-29 cells the microplates were swiftly turned to discard the medium before adding the solvent mixture. The microplates were gently shaken in the dark for 30 min and absorbance at 570 nm and 630 nm (background) was measured with an ELISA plate reader. All experiments were carried out in quadruplicate; the percentage of viable cells was calculated as the mean±SD with controls set to 100%.
# 518A2 cells [2] = experiment: ROS generation, NBT assay, 518A2; format: cell-based, human; settings: 50 μM, relative to untreated controls (1%), mean ± SD
# Protocol: (§1) The generation of reactive oxygen species (ROS) in tumor cells is a sign of cellular stress resulting in severe damage of cellular components such as DNA, lipids or proteins.
# (§2) For the NBT assay, HL-60 cells (0.5·10^6/mL) were plated in 96-well tissue culture plates, and test compounds were added after 24 h incubation at 37° C. to achieve a final concentration of 50 μM. […] After removal of the cell medium by centrifugation, the cells in each well were resuspended in 100 μL 0.1% NBT, and the plates were placed in the incubator for 1 h. The reduced NBT was solubilized with 100 μl 2 M KOH and 130 μl DMSO for 30 min. The absorbance was measured for each well at 630 and 405 nm (background) using an ELISA plate reader. The adherent 518A2 cells (0.5·10^4/mL) were seeded out in 96-well tissue culture plates after trypsinization and incubation for 24 h at 37° C. to allow attachment, then treated similarly, only that the medium was removed prior to incubation with NBT for 4 h. All experiments were carried out in quadruplicate.
# HL-60 cells [3] = experiment: TUNEL assay; format: cell-based, human; settings: 10 μM; 16 h incubation
# HUVEC cells [4] = experiment: Tube formation assay on matrigel; format: cell-based
# Protocol: 35 μL of media:matrigel (1:1) were added into wells of a 96-well plate and incubated at 37° C. for 30 minutes. A trypsinized HUVEC cell suspension was set to 800.000 cells/mL. In another 96-well plate 25 μL of the compound stock were serially diluted with 25 μL of media. 25 μL of compound dilutions and 25 μL of cell suspension were added to the matrigel coated 96-well plate and the cells were incubated over night. As a negative control, methanol was used as in place of the compound dilutions.
# HL-60 cells [5] = experiment: Mitochondrial membrane assay (JC-1), HL-60; format: cell-based, human; settings: 5 μM, red/green fluorescence ratio relative to untreated controls (100%), mean ± SD
# Protocol: (§3) Values represent means of four independent experiments±standard deviation.
# (§4) Changes in mitochondrial membrane potential were determined by the Mitochondrial Membrane Detection Kit (Stratagene, La Jolla, Calif., USA) according to the manufacturer's procedure. 72 h following treatment with 5 μM of the test compounds, cell samples were centrifuged at 400 g for 5 min. The pellets were resuspended in 500 μL diluted JC-1 solution, incubated at 37° C. for 15 min (HL-60) and then centrifuged again for 5 min at 400 g. After washing, the pellets were resuspended in 100 μL PBS and transferred into the wells of a black 96-well plate. The red (λex=585 nm, λem=590 nm) and green (λex=510 nm, λem=527 nm) fluorescence intensities were measured and their ratio was calculated.
# HL-60 cells [6] = experiment: ROS generation, NBT assay, HL-60; format: cell-based, human; settings: 50 μM, relative to untreated controls (1%), mean ± SD
# Protocol: as §1, §2
# [7] = tested on: MCF-7/Topo breast carcinoma cells; experiment: MTT cell growth inhibition, MCF-7/Topo; format: cell-based, human; settings: MCF-7/Topo (BCRP+)
# Protocol: (§5) The effects of the compounds 5b, 6b, 8a, and 8e according to the present invention and of the reference compound 25f (Wang et al., J. Med. Chem. 2002, 45, 1697-1711) on cells of the following human tumor cell lines were evaluated: 518A2 melanoma, HL-60 leukemia, HT-29 colon carcinoma, KB-V1/Vbl cervical carcinoma, and MCF-7/Topo breast carcinoma.
# (§6) The HL-60 cells were obtained from the German Collection of Biological Material (DSMZ), Braunschweig, Germany; the human 518A2 melanoma cells as well as the testicular germ cell tumor cell lines H12.1 and 1411HP were cultured in the department of oncology and hematology, Medical Faculty of the Martin-Luther University, Halle, Germany; the KBV1/Vbl and the MCF-7/Topo cells were obtained from the Institute of Pharmacy of the University Regensburg, Germany; and the colon HT-29 cells from the University Hospital Erlangen, Germany. The HL-60 and the HT-29 cells were grown in RPMI-1640 medium supplemented with 10% fetal calf serum (FCS), 100 IU/mL penicillin G, 100 μg/mL streptomycin sulfate, 0.25 μg/mL amphotericin B and 250 μg/mL gentamycine (all from Gibco, Egenstein, Germany). The 518A2 and the KB-V1/Vbl cells were cultured in Dulbecco's Modified Eagle Medium (D-MEM, Gibco) containing 10% FCS, 100 IU/mL penicillin G, 100 μg/mL streptomycin sulfate, 0.25 μg/mL amphotericin B and 250 μg/mL gentamycine. The MCF-7/Topo cells were grown in E-MEM medium (Sigma) supplemented with 2.2 g/L NaHCO3, 110 mg/L sodium pyruvate and 5% FCS. The cells were maintained in a moisture-saturated atmosphere (5% CO2) at 37° C. in 75-mL culture flasks (Nunc, Wiesbaden, Germany). They were serially passaged following trypsinisation by 0.05% trypsin/0.02% EDTA (PAA laboratories, Clbe, Germany). Mycoplasma contamination was routinely monitored, and only mycoplasma-free cultures were used.
# MTT [3-(4,5-dimethylthiazol-2-yl)-2,5-diphenyltetrazolium bromide](ABCR) was used to identify viable cells which reduce it to a violet formazan (Mosmann, J. Immunol. Methods 1983, 65, 55-63). HL-60 leukemia cells (5×10^5/mL), and cells (5×10^4/mL) of 518A2 melanoma, HT-29 colon, KB-V1/Vbl cervix and MCF-7/Topo breast carcinoma were seeded out in 96-well tissue culture plates and cultured for 24 h. Incubation (5% CO2, 95% humidity, 37° C.) of the cells following treatment with the test compounds was continued for 24, 48 or 72 h. Blank and solvent controls were treated identically. […] The microplates were gently shaken in the dark for 30 min and absorbance at 570 nm and 630 nm (background) was measured with an ELISA plate reader. All experiments were carried out in quadruplicate; the percentage of viable cells was calculated as the mean±SD with controls set to 100%.
# 518A2 cells [8] = experiment: Mitochondrial membrane assay (JC-1), 518A2; format: cell-based, human; settings: 5 μM, red/green fluorescence ratio relative to untreated controls (100%), mean ± SD
# Protocol: as §3, §4
# [9] = tested on: PtK-2 opossum kidney cells; experiment: Cytotoxicity, PtK-2; format: cell-based; settings: PtK2; PtK-2 opossum kidney cells (non-malign)
# Protocol: (§7) The compounds 9a, 9b and 9c, which are exemplary compounds of formula (III) according to the present invention, as well as the reference compound 25f were tested in a similar manner.
# L929 fibroblasts = experiment: Cytotoxicity, L929; format: cell-based; settings: Mus musculus, read-out: IC50 L-929
# Protocol: as §7
# KB-3-1 cervix carcinoma = experiment: Cytotoxicity, KB-3-1; format: cell-based; settings: Homo sapiens
# Protocol: as §7
# HUVEC cells [10] = experiment: Minimal inhibitory concentration in HUVEC; format: cell-based
# Protocol: as §7
# PC-3 prostata cancer = experiment: Cytotoxicity, PC-3; format: cell-based
# Protocol: as §7
# NHDF fibroblasts = experiment: Cytotoxicity, NHDF; format: cell-based; settings: Homo sapiens; NHDF fibroblasts (non-malign)
# Protocol: as §7
# [11] = tested on: vascular system of a fertilized chicken embryo; experiment: CAM assay; format: in vivo; settings: 10 nmol applied on the embryonal vessels; up to three days
# Protocol: Compounds of the present invention were tested for anti-angiogenic and vasculature disrupting properties using the CAM assay. In this test the vascular system of a fertilized chicken embryo is used as a model (Wilting et al., Anat. Embryol. 1991, 183, 259-271).
# Fertilized chicken eggs received from a nearby farm directly after laying have been incubated at a temperature of 36-38° C. and a relative humidity of 60%. During the growth the eggs have been held in an inclined position and turned from time to time in order to avoid an adherence to the shell. After four days each embryo was transferred into a cavity created by fixing a thin plastic foil on top of a cup and covered. This was done by opening the shell at the flat end where the air sac resides and letting the content slip out. There the growth continued for another 2-4 days until the first blood vessels became visible. Then 10 nmol of the substance to be tested (in 10 μL PBS with 1% DMF) have been applied directly on the embryonal vessels. As a reference PBS was used. Finally incubation continued for up to another three days (Dugan et al., Anat. Rec. 1991, 229, 125-128; Fisher, Tested studies for laboratory teaching 1993, 5, 105-115).
# [12] = tested on: HT-29 colon carcinoma cells; experiment: MTT cell growth inhibition, HT-29; format: cell-based, human; settings: multi-drug resistant HT-29 colon cancer cells
# Protocol: as §5, §6
# MTT [3-(4,5-dimethylthiazol-2-yl)-2,5-diphenyltetrazolium bromide](ABCR) was used to identify viable cells which reduce it to a violet formazan (Mosmann, J. Immunol. Methods 1983, 65, 55-63). HL-60 leukemia cells (5×10^5/mL), and cells (5×10^4/mL) of 518A2 melanoma, HT-29 colon, KB-V1/Vbl cervix and MCF-7/Topo breast carcinoma were seeded out in 96-well tissue culture plates and cultured for 24 h. Incubation (5% CO2, 95% humidity, 37° C.) of the cells following treatment with the test compounds was continued for 24, 48 or 72 h. Blank and solvent controls were treated identically. MTT in phosphate buffered saline (5 mg/mL) was added to a final concentration of 0.05% (HL-60, 518A2) or 0.1% (HT-29, KB-V1/Vbl, MCF-7/Topo). After 2 h the formazan precipitate was dissolved in 10% sodium dodecylsulfate in DMSO containing 0.6% acetic acid in the case of the HL-60 cells. For the adherent 518A2, KB-V1/Vbl, MCF-7/Topo and HT-29 cells the microplates were swiftly turned to discard the medium before adding the solvent mixture. The microplates were gently shaken in the dark for 30 min and absorbance at 570 nm and 630 nm (background) was measured with an ELISA plate reader. All experiments were carried out in quadruplicate; the percentage of viable cells was calculated as the mean±SD with controls set to 100%.
# [13] = tested on: 1411HP germ cell tumor xenografts; settings: 1411HP xenografts; cited from earlier work
# H12.1 xenograft = H12.1 xenograft bearing mice; cited from earlier work
Structure (SMILES),NBT Reduction [%] in 518A2 cells after 24 h (518A2 cells [2]),Intact mitochondria [%] in HL-60 cells after 72 h (HL-60 cells [5]),Intact mitochondria [%] in 518A2 cells after 72 h (518A2 cells [8]),pIC50 [9],pIC50 (L929 fibroblasts),pIC50 (KB-3-1 cervix carcinoma),minimal inhibitory concentration (MIC) HUVEC (HUVEC cells [10]),pIC50 (PC-3 prostata cancer),pIC50 (NHDF fibroblasts),other results
"COc1ccc(-c2ocnc2-c2cc(N)c(OC)c(OC)c2)cc1N [compound 8a, 4-(3′-Amino-4′,5′-dimethoxyphenyl)-5-(3″-amino-4″-methoxyphenyl)-oxazole]",1.5 ± 0.1%,62 ± 9%,85 ± 7%,–,–,–,–,–,–,efficacy (comparison) [1]: greater efficacy than 25f and 5b/6b; apoptotic (TUNEL-positive) cells (HL-60 cells [3]): about 60%; inhibition of tube formation (HUVEC cells [4]; 7.72 ng/mL): pronounced inhibition of tube formation; NBT Reduction [%] in HL-60 cells after 24 h (HL-60 cells [6]): 3.5 ± 0.4%; cytotoxicity / efficacy (comparison) [7]: greater efficacy than 25f and 5b/6b
"COc1ccc(-c2c(-c3cc(OC)c(OC)c(OC)c3)ncn2C)cc1N [compound 25f, reference compound]",2.2 ± 0.4%,74% and 74 ± 13%,87 ± 7%,6.34,6.67,7.17,0.294 µM,7.05,6.87,concentration that inhibits tube formation (HUVEC cells [4]): 130 ng/mL
"COc1ccc(-c2ncn(C)c2-c2cc(I)c(OC)c(I)c2)cc1F [9c, 1-Methyl-4-(3-fluoro-4-methoxyphenyl)-5-(3,5-diiodo-4-methoxyphenyl)-imidazole]",–,–,–,6.48,7.74,8.60,0.083 µM,8.48,5.48,–
"COc1ccc(/C=C\c2cc(OC)c(OC)c(OC)c2)cc1O [CA-4, combretastatin A-4, reference compound]",–,–,–,–,–,–,–,–,–,effect on embryonal blood vessels [11]: dramatic vessel shrinkage within 24 h after treatment and to a complete degradation of the vascular system within three days; cytotoxicity (comparison) [12]: lower cytotoxicities than compounds 5b and 6b
"COc1ccc(-c2ncn(C)c2-c2cc(Br)c(OC)c(Br)c2)cc1F [9b, 1-Methyl-4-(3-fluoro-4-methoxyphenyl)-5-(3,5-dibromo-4-methoxyphenyl)-imidazole]",–,–,–,5.93,4.66,7.85,0.257 µM,8.00,6.40,–
N.N.[Cl][Pt][Cl] [cisplatin],–,–,–,–,–,–,–,–,–,tumor response [13]: only a transient growth inhibition followed by renewed tumor progress; tumor response (H12.1 xenograft): complete regressions
